Experimental data from patent publication US12213483B1, “Herbicidal compositions comprising trifludimoxazin” (BASF SE, priority 2024, dated 2025).

What was measured:
Assay type in all cases: in vivo
[1] = test system: Sorghum halapense (SORHA); test: Post-emergence application in greenhouse trials, SORHA
Method: (§1) In the examples below, using the method of S. R. Colby (1967) “Calculating synergistic and antagonistic responses of herbicide combinations”, Weeds 15, p. 22ff., the value E, which is expected if the activity of the individual active compounds is only additive, was calculated: E=X+Y−(X·Y/100) • where • X=percent activity using active herbicide A at an application rate a; • Y=percent activity using active trifludimoxazin at an application rate b; • E=expected activity (in %) by A+B at application rates a+b.
(§2) If the value found experimentally is higher than the value E calculated according to Colby, a synergistic effect is present.
(§3) The culture containers used were plastic pots containing loamy sand with approximately 3.0% of humus as substrate. The seeds of the test plants were sown separately for each species.
(§4) For the post-emergence treatment, the test plants were grown to a plant height of from 3 to 15 cm, depending on the plant habit, and only then treated with the active compounds which had been suspended or emulsified in water. To this end, the test plants were either sown directly, and grown in the same containers, or they were first grown separately as seedlings and transplanted into the test containers a few days prior to treatment.
(§5) Depending on the species, the plants were kept at 10-25° C. and 20-35° C., respectively.
(§6) The test period extended over 2 to 4 weeks. During this time, the plants were tended and their response to the individual treatments was evaluated.
(§7) Evaluation was carried out using a scale from 0 to 100. 100 means no emergence of the plants, or complete destruction of at least the above-ground parts, and 0 means no damage or normal course of growth. A good herbicidal activity is given at values of at least 70, and very good herbicidal activity is given at values of at least 85.
(§8) In the greenhouse trials, unless indicated otherwise, herbicide A, trifludimoxazin and saflufenacil were formulated (50 g/I) and applied with addition of 1% MSO (methylated seed oil) as adjuvant. The solvent used was water (200 I/ha).

Setaria italica (SETIT) = test: Post-emergence application in field trials, SETIT; conditions: 22 DAT; water volume 200 l/ha; growth stage 21-31; 30 g ai/ha
Method: as §1, §2
(§9) On field test sites, natural weed infestation or seeded weeds were treated post-emergence of the weeds.
(§10) In the field trials, the weedy plants were treated as indicated below.
(§11) Herbicide A-1 (342 g/I), trifludimoxazin (500 g/I) and saflufenacil (342 g/I) were, together with addition of 1% MSO (methylated seed oil) as adjuvant (unless indicated otherwise), formulated in water as distribution medium as indicated and sprayed with commercial flat fan nozzles.
(§12) In the following experiments, the herbicidal activity for the individual herbicidal compositions (solo and mixture applications) was assessed at the indicated days after treatment (DAT). […]

[2] = test system: Abutilon theophrasti (ABUTH); test: Post-emergence application in greenhouse trials, ABUTH
Method: as §1, §2, §3, §4, §5, §6, §7, §8

[3] = test system: Digitaria sanguinales (DIGSA); test: Post-emergence application in greenhouse trials, DIGSA
Method: as §1, §2, §3, §4, §5, §6, §7, §8

Sinapis alba (SINAL) = test: Post-emergence application in field trials, SINAL; conditions: 7 DAT; water volume 200 l/ha; growth stage 14-21; height 11-12 cm; 12.5 g ai/ha
Method: as §1, §2, §9, §10, §11, §12

[4] = test system: Brachiaria decumbens (BRADC); test: Post-emergence application in greenhouse trials, BRADC; conditions: GS 13
Method: as §1, §2, §3, §4, §5, §6, §7, §8

[5] = test system: Euphorbia heterophylla (EPHHL); test: Post-emergence application in field trials, EPHHL; conditions: 43 DAT; water volume 200 l/ha; growth stage 16-18; height 10-15 cm; 20 g ai/ha
Method: as §1, §2, §9, §10, §11, §12

[6] = test system: Amaranthus palmeri (AMAPA); test: Post-emergence application in field trials, AMAPA; conditions: 21 DAT, water volume 200 l/ha, 0.25 l/ha Dash MSO Max, pre plant burndown, height 30 cm
Method: as §1, §2, §9, §10, §11
(§13) In the following experiments, the herbicidal activity for the individual herbicidal compositions (solo and mixture applications) was assessed at the indicated days after treatment (DAT). The assessments for the damage on undesired weeds caused by the composition was carried out using a scale from 0 to 100%, compared to the untreated control plants. Here, 0 means no damage and 100 means complete destruction of the plants.
(§14) Herbicide A-1 (100 g/l) and trifludimoxazin (500 g/l) were, together with addition of 1% MSO (methylated seed oil) as adjuvant (unless indicated otherwise), formulated in water as distribution medium as indicated and sprayed with commercial flat fan nozzles.

Hordeum vulgare (HORVS) = test: Post-emergence application in field trials, HORVS; conditions: water volume 100 l/ha, pre plant burndown, 18 g ai/ha
Method: as §1, §2, §9, §10, §11, §13, §14

Avena fatua (AVEFA) [7] = test: Post-emergence application in field trials, AVEFA; conditions: 29 DAT; water volume 100 l/ha; pre plant burndown; growth stage 14-23; height 24-40 cm; 18 g ai/ha
Method: as §1, §2, §9, §10, §11, §13, §14

Avena fatua (AVEFA) [8] = test: Post-emergence application in greenhouse trials, AVEFA
Method: as §1, §2, §3, §4, §5, §6, §7, §8

[9] = test system: Spermacoce latifolia (BOIFL); test: Post-emergence application in field trials, BOIFL; conditions: 8 DAT, water volume 200 l/ha, growth stage 12-16, height 3-10 cm
Method: as §1, §2, §9, §10, §11, §13, §14

Setaria faberi (SETFA) = test: Post-emergence application in greenhouse trials, SETFA; conditions: GS 13
Method: as §1, §2, §3, §4, §5, §6, §7, §8

[10] = test system: Brachiaria decumbens (BRADC); test: Post-emergence application in field trials, BRADC; conditions: 3 DAT; water volume 200 l/ha; growth stage 21-31; height 3-20 cm; 20 g ai/ha
Method: as §1, §2, §9, §10, §11, §12

[11] = test system: Echinocloa crus-galli (ECHCG); test: Post-emergence application in greenhouse trials, ECHCG; conditions: GS 13
Method: as §1, §2, §3, §4, §5, §6, §7, §8

Compound: CCOC(=O)COc1ccccc1Oc1nc(-n2c(=O)cc(C(F)(F)F)n(C)c2=O)c(F)cc1Cl [A-1, ethyl 2-[2-[[3-chloro-5-fluoro-6-[3-methyl-2,6-dioxo-4-(trifluoromethyl)pyrimidin-1-yl]-2-pyridyl]oxy]phenoxy]acetate]
- % Herbicidal activity ([1]; 7 DAT, B-1 formulated as 500 g/l, GS 14, A-1 2 g ai/ha): 80%
- % Herbicidal activity ([1]; 20 DAT, B-1 formulated as 500 g/l, GS 14, A-1 2 g ai/ha): 60%
- % Herbicidal activity ([1]; 20 DAT, GS 14, A-1 0.2 g ai/ha): 10%
- % Herbicidal activity ([1]; 20 DAT, GS 14, A-1 0.3 g ai/ha): 10%
- % Herbicidal activity ([1]; 20 DAT, growth stage 14, 0.3 g ai/ha): 10%
- % Herbicidal activity (Setaria italica (SETIT)): 88%
- % Herbicidal activity ([2]; 6 DAT, GS 33, A-1 0.2 g ai/ha): 65%
- % Herbicidal activity ([2]; 6 DAT, GS 33, A-1 0.3 g ai/ha): 65%
- % Herbicidal activity ([2]; 6 DAT, GS 33, A-1 0.8 g ai/ha): 85%
- % Herbicidal activity ([2]; 20 DAT, GS 33, A-1 0.2 g ai/ha): 15%
- % Herbicidal activity ([2]; 20 DAT, GS 33, A-1 0.3 g ai/ha): 15%
- % Herbicidal activity ([2]; 20 DAT, growth stage 33, 0.2 g ai/ha): 15%
- % Herbicidal activity ([3]; 7 DAT, GS 12, A-1 0.3 g ai/ha): 45%
- % Herbicidal activity ([3]; 7 DAT, GS 12, A-1 0.4 g ai/ha): 50%
- % Herbicidal activity ([3]; 7 DAT, GS 12, A-1 0.8 g ai/ha): 65%
- % Herbicidal activity ([3]; 7 DAT, GS 12, A-1 0.9 g ai/ha): 90%
- % Herbicidal activity ([3]; 19 DAT, B-1 formulated as 500 g/l, GS 13, A-1 1 g ai/ha): 95%
- % Herbicidal activity (Sinapis alba (SINAL)): 55%
- % Herbicidal activity ([4]; 7 DAT, B-1 formulated as 500 g/l, A-1 2 g ai/ha): 90%
- % Herbicidal activity ([4]; 7 DAT, A-1 0.4 g ai/ha): 40%
- % Herbicidal activity ([4]; 7 DAT, A-1 0.8 g ai/ha): 50%
- % Herbicidal activity ([4]; 7 DAT, A-1 0.9 g ai/ha): 60%
- % Herbicidal activity ([4]; 7 DAT, A-1 1 g ai/ha): 60%
- % Herbicidal activity ([4]; 20 DAT, B-1 formulated as 500 g/l, A-1 2 g ai/ha): 90%
- % Herbicidal activity ([4]; 20 DAT, A-1 0.9 g ai/ha): 55%
- % Herbicidal activity [5]: 73%
- % Herbicidal activity ([6]; A-1 12.5 g ai/ha): 70%
- % Herbicidal activity ([6]; A-1 25 g ai/ha): 85%
- % Herbicidal activity (Hordeum vulgare (HORVS); 28 DAT, growth stage 21-24, height 15-37 cm): 89%
- % Herbicidal activity (Hordeum vulgare (HORVS); 29 DAT, growth stage 15-24, height 25-45 cm): 73%
- % Herbicidal activity (Avena fatua (AVEFA) [7]): 80%
- % Herbicidal activity (Avena fatua (AVEFA) [8]; 7 DAT, GS 13, A-1 1 g ai/ha): 65%
- % Herbicidal activity (Avena fatua (AVEFA) [8]; 20 DAT, B-1 formulated as 500 g/l, GS 12, A-1 2 g ai/ha): 98%
- % Herbicidal activity (Avena fatua (AVEFA) [8]; 20 DAT, GS 13, A-1 0.3 g ai/ha): 15%
- % Herbicidal activity (Avena fatua (AVEFA) [8]; 20 DAT, growth stage 13, 0.3 g ai/ha): 15%
- % Herbicidal activity ([9]; 20 g ai/ha): 75%
- % Herbicidal activity ([9]; 30 g ai/ha): 82%
- % Herbicidal activity (Setaria faberi (SETFA); 7 DAT, A-1 0.3 g ai/ha): 55%
- % Herbicidal activity (Setaria faberi (SETFA); 7 DAT, A-1 0.5 g ai/ha): 80%
- % Herbicidal activity (Setaria faberi (SETFA); 20 DAT, A-1 0.3 g ai/ha): 80%
- % Herbicidal activity [10]: 77%
- % Herbicidal activity ([11]; 7 DAT, A-1 0.4 g ai/ha): 40%
- % Herbicidal activity ([11]; 20 DAT, A-1 0.2 g ai/ha): 0%
